Measured values taken from patent US20250197382A1, “KIF18A INHIBITOR” (WIGEN BIOMEDICINE TECHNOLOGY (SHANGHAI) CO., LTD., priority 2022, published 2025).
pIC50: −log10 of the molar value.

What follows are compounds tested against Recombinant human KIF18A (1-467His-tagged) protein (Homo sapiens (Human), UniProt Q8NI77) (assay: KIF18A enzyme assay (microtubule-stimulated ATPase activity, ADP-Glo)). Conditions: 30 nM KIF18A, ATP 75 μM, read-out: inhibitory activity against KIF18A IC50.
Assay type: biochemical
Procedure: Biological Example 1. Assay for In Vitro Inhibition of Enzymatic Activity of KIF18A by Compounds of the Present Invention
KIF18A enzyme assay: The enzymatic activity of KIF18A after treatment with the compounds was measured by an assay of microtubule-stimulated ATPase activity. ADP generated from the ATPase reaction was measured in this assay. The compounds were serially diluted 2-fold in DMSO over a range of 22 concentration points. Recombinant human KIF18A (1-467His-tagged) protein was expressed using a baculovirus system. Concentrations of KIF18A protein, microtubules, and ATP in the reaction were optimized for a standardized homogenous enzyme assay using an ADP-Glo kinase/ATPase assay kit. A reaction buffer [(15 mM Tris, pH 7.5), 10 mM MgCl2, 0.01% PluronicF-68, 1 μM paclitaxel, and 30 μg/mL pig microtubules] was prepared. The compounds and KIF18A protein (30 nM) were added to the prepared reaction buffer, and the reaction mixture was incubated at room temperature for 15 min, followed by addition of ATP (Km, 75 μM). The resulting reaction mixture was incubated at room temperature for another 15 min. 5 μL of ADP-Glo reagent and 2.5 μL of the reaction mixture were mixed and the resulting mixture was incubated at room temperature for 40 min. 10 μL of ADP-Glo detection reagent was added and the mixture was incubated at room temperature for 40 min. Luminescence was measured using a microplate reader and compared with that of the DMSO group, and then the inhibition percentages and IC50 values of the compounds were calculated.

Sequence of Recombinant human KIF18A (1-467His-tagged) protein (Q8NI77 1-467): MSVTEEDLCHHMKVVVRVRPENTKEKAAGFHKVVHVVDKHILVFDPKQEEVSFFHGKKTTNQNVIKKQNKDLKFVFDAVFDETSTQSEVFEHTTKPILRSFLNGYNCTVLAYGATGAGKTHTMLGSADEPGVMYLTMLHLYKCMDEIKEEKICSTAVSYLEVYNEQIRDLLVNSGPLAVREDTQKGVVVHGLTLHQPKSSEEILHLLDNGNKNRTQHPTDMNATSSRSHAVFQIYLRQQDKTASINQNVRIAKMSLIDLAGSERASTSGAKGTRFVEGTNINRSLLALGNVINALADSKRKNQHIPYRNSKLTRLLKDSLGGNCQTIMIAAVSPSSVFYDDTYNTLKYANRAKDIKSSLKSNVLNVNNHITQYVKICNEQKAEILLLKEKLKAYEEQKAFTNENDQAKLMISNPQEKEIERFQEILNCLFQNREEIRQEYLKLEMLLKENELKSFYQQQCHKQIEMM
Sequence of Recombinant human KIF18A (1-467His-tagged) protein (P02550 whole entry partner): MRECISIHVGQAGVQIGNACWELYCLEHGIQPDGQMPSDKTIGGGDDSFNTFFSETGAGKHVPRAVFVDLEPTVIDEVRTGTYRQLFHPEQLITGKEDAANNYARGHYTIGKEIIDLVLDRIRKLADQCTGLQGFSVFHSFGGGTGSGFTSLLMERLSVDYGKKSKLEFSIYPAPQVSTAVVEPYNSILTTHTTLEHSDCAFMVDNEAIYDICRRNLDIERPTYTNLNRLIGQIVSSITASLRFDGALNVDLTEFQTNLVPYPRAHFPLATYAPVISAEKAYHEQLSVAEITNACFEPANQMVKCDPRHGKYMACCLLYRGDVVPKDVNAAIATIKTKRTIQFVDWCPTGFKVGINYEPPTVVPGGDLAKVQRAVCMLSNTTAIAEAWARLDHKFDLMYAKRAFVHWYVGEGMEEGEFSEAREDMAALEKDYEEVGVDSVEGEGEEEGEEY
Sequence of Recombinant human KIF18A (1-467His-tagged) protein (P02554 whole entry partner): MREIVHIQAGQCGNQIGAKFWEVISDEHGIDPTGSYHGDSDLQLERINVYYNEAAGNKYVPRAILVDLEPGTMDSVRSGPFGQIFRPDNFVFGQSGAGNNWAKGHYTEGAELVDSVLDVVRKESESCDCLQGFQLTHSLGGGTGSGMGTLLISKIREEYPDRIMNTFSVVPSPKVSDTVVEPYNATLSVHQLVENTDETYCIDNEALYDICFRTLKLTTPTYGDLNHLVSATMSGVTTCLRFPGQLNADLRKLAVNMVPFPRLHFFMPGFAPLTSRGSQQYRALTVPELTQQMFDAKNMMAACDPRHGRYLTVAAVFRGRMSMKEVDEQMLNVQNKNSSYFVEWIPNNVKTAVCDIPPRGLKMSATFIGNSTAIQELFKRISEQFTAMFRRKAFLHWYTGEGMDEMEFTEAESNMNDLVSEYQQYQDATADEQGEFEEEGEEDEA

pIC50 | SMILES
≥ 7.00 | C[C@@H](CO)NS(=O)(=O)c1ccc(C(=O)Nc2cc3c(c(N4CCC(F)(F)CC4)n2)N(C)CC3)c(N2CCC3(CC2)CC3)c1 [Compound 349]
≥ 7.00 | CN1CCc2cc(C(=O)Nc3ccc(S(=O)(=O)NCCO)cc3N3CCC4(CC3)CC4)nc(N3CC4CC4C3)c21 (stereo not drawn) [Compound 378]
≥ 7.00 | CN1CCc2cc(NC(=O)c3ccc(NS(=O)(=O)CCO)cc3N3CCC4(CC3)CC4)cc(N3CCOCC3)c21 [Compound 268]
≥ 7.00 | C[C@H](CO)NS(=O)(=O)c1ccc(NC(=O)c2cc3ccn(C)c3c(N3CCO[C@H](C)C3)n2)c(N2CCC3(CC2)CC3)c1 [Compound 512]
≥ 7.00 | C[C@H](CO)S(=O)(=O)Nc1ccc(NC(=O)c2cc3c(c(N4CCC(F)(F)CC4)n2)OCC3)c(N2CCC3(CC2)CC3)c1 [Compound 110]
≥ 7.00 | O=C(Nc1ccc(NS(=O)(=O)CCO)cc1N1CCC2(CC1)CC2)c1cc2c(c(N3CC(F)(F)C3)c1)OCC2 [Compound 36]
≥ 7.00 | CC1(F)CCN(c2nc(NC(=O)c3ccc(S(=O)(=O)NCCO)cc3N3CCC4(CC3)CC4)cc3ccoc23)C1 (stereo not drawn) [Compound 216]
≥ 7.00 | C[C@@H]1CN(c2nc(C(=O)Nc3ccc(S(=O)(=O)NCCO)cc3N3CCC4(CC3)CC4)cc3c2OCC3)CCO1 [Compound 114]
≥ 7.00 | C[C@H]1CN(c2nc(NC(=O)c3ccc(S(=O)(=O)NCCO)cc3N3CCC4(CC3)CC4)cc3c2OCC3)CCO1 [Compound 83]
≥ 7.00 | O=C(Nc1ccc(S(=O)(=O)NCCO)cc1N1CCC2(CC1)CC2)c1cc2c(c(N3CCC(F)CC3)n1)OCC2 [Compound 121]
≥ 7.00 | Cn1ccc2cc(NC(=O)c3ccc(NS(=O)(=O)CCO)cc3N3CCC4(CC3)CC4)nc(N3CCC4(CC4)C3)c21 [Compound 454]
≥ 7.00 | C[C@@H]1CN(c2cc(C(=O)Nc3ccc(S(=O)(=O)N[C@@H](C)CO)cc3N3CCC4(CC3)CC4)cc3ccn(C)c23)CCO1 [Compound 447]
≥ 7.00 | CC(C)(CO)Nc1nc(C(=O)Nc2ccc(S(=O)(=O)NCCO)cc2N2CCC3(CC2)CC3)cc2ccoc12 [Compound 251]
≥ 7.00 | C[C@@H]1CN(c2cc(C(=O)Nc3ccc(NS(=O)(=O)[C@H](C)CO)cc3N3CCC4(CC3)CC4)cc3c2N(C)CC3)CCO1 [Compound 304]
≥ 7.00 | O=C(Nc1ccc(S(=O)(=O)NCCO)cc1N1CCC2(CC1)CC2)c1cc2c(c(N3CCOCC3)n1)OCC2 [Compound 124]
≥ 7.00 | CC(C)(CO)Nc1nc(C(=O)Nc2ccc(NS(=O)(=O)CCO)cc2N2CCC3(CC2)CC3)cc2ccoc12 [Compound 235]
≥ 7.00 | Cn1ccc2cc(C(=O)Nc3ccc(NS(=O)(=O)CCO)cc3N3CCC4(CC3)CC4)nc(N3CCOCC3)c21 [Compound 492]
≥ 7.00 | C[C@@H]1CN(c2cc(NC(=O)c3ccc(S(=O)(=O)N[C@@H](C)CO)cc3N3CCC4(CC3)CC4)cc3ccn(C)c23)CCO1 [Compound 415]
≥ 7.00 | O=C(Nc1cc(N2CCC(F)(F)CC2)c2[nH]ccc2c1)c1ccc(NS(=O)(=O)CCO)cc1N1CCC2(CC1)CC2 [Compound 521]

pIC50 | SMILES
≥ 7.00 | C[C@@H](CO)S(=O)(=O)Nc1ccc(NC(=O)c2cc3c(c(N4CCC(F)(F)CC4)n2)N(C)CC3)c(N2CCC3(CC2)CC3)c1 [Compound 365]
≥ 7.00 | CN1CCc2cc(NC(=O)c3ccc(NS(=O)(=O)CCO)cc3N3CCC4(CC3)CC4)nc(NC(C)(C)CO)c21 [Compound 331]
≥ 7.00 | CN1CCc2cc(C(=O)Nc3ccc(NS(=O)(=O)CCO)cc3N3CCC4(CC3)CC4)cc(N3CCC(F)CC3)c21 [Compound 297]
≥ 7.00 | O=C(Nc1cc2c(c(N3CCC(F)CC3)c1)OCC2)c1ccc(S(=O)(=O)NCCO)cc1N1CCC2(CC1)CC2 [Compound 25]
≥ 7.00 | Cn1ccc2cc(NC(=O)c3ccc(S(=O)(=O)NCCO)cc3N3CCC4(CC3)CC4)cc(N3CCC4(CC4)C3)c21 [Compound 406]
≥ 7.00 | Cn1ccc2cc(C(=O)Nc3ccc(NS(=O)(=O)CCO)cc3N3CCC4(CC3)CC4)cc(N3CCC(F)CC3)c21 [Compound 425]
≥ 7.00 | Cn1ccc2cc(C(=O)Nc3ccc(NS(=O)(=O)CCO)cc3N3CCC4(CC3)CC4)cc(N3CCC4(CC4)C3)c21 [Compound 422]
≥ 7.00 | C[C@H](CO)S(=O)(=O)Nc1ccc(C(=O)Nc2cc3c(c(N4CCC(F)(F)CC4)c2)OCC3)c(N2CCC3(CC2)CC3)c1 [Compound 14]
≥ 7.00 | C[C@@H]1CN(c2cc(NC(=O)c3ccc(S(=O)(=O)NCCO)cc3N3CCC4(CC3)CC4)cc3c2N(C)CC3)CCO1 [Compound 274]
≥ 7.00 | CN1CCc2cc(NC(=O)c3ccc(S(=O)(=O)NCCO)cc3N3CCC4(CC3)CC4)nc(N3CCOCC3)c21 [Compound 332]
≥ 7.00 | O=C(Nc1cc2c(c(N3CCOCC3)c1)OCC2)c1ccc(NS(=O)(=O)CCO)cc1N1CCC2(CC1)CC2 [Compound 12]
≥ 7.00 | C[C@@H]1CN(c2nc(C(=O)Nc3ccc(S(=O)(=O)NCCO)cc3N3CCC4(CC3)CC4)cc3ccoc23)CCO1 [Compound 242]
≥ 7.00 | CC1(F)CCN(c2nc(NC(=O)c3ccc(S(=O)(=O)NCCO)cc3N3CCC4(CC3)CC4)cc3c2OCC3)C1 (stereo not drawn) [Compound 88]
≥ 7.00 | Cn1ccc2cc(C(=O)Nc3ccc(S(=O)(=O)NCCO)cc3N3CCC4(CC3)CC4)nc(N3CCC(F)CC3)c21 [Compound 505]
≥ 7.00 | C[C@H]1CN(c2cc(NC(=O)c3ccc(S(=O)(=O)NCCO)cc3N3CCC4(CC3)CC4)cc3c2OCC3)CCO1 [Compound 19]
≥ 7.00 | C[C@H](CO)S(=O)(=O)Nc1ccc(C(=O)Nc2cc3c(c(N4CCC(F)(F)CC4)n2)N(C)CC3)c(N2CCC3(CC2)CC3)c1 [Compound 334]
≥ 7.00 | CN1CCc2cc(C(=O)Nc3ccc(NS(=O)(=O)CCO)cc3N3CCC4(CC3)CC4)nc(N3CC(F)(F)C3)c21 [Compound 356]
≥ 7.00 | O=C(Nc1ccc(S(=O)(=O)NCCO)cc1N1CCC2(CC1)CC2)c1cc2c(c(OC3CCC3)n1)OCC2 [Compound 119]
≥ 7.00 | CC(C)(CO)Nc1nc(C(=O)Nc2ccc(NS(=O)(=O)CCO)cc2N2CCC3(CC2)CC3)cc2c1OCC2 [Compound 107]

pIC50 | SMILES
≥ 7.00 | C[C@H](CO)S(=O)(=O)Nc1ccc(C(=O)Nc2cc(N3CCC(F)(F)CC3)c3c(ccn3C)c2)c(N2CCC3(CC2)CC3)c1 [Compound 398]
≥ 7.00 | CC(C)(CO)Nc1nc(NC(=O)c2ccc(NS(=O)(=O)CCO)cc2N2CCC3(CC2)CC3)cc2ccoc12 [Compound 203]
≥ 7.00 | O=C(Nc1cc(N2CCOCC2)c2occc2c1)c1ccc(S(=O)(=O)NCCO)cc1N1CCC2(CC1)CC2 [Compound 156]
≥ 7.00 | Cn1ccc2cc(NC(=O)c3ccc(NS(=O)(=O)CCO)cc3N3CCC4(CC3)CC4)nc(N3CC(F)(F)C3)c21 [Compound 452]
≥ 7.00 | Cn1ccc2cc(C(=O)Nc3ccc(S(=O)(=O)NCCO)cc3N3CCC4(CC3)CC4)nc(OC3CCC3)c21 [Compound 503]
≥ 7.00 | Cn1ccc2cc(NC(=O)c3ccc(NS(=O)(=O)CCO)cc3N3CCC4(CC3)CC4)nc(N3CCC(C)(F)C3)c21 (stereo not drawn) [Compound 456]
≥ 7.00 | C[C@H]1CN(c2nc(C(=O)Nc3ccc(NS(=O)(=O)CCO)cc3N3CCC4(CC3)CC4)cc3ccn(C)c23)CCO1 [Compound 483]
≥ 7.00 | O=C(Nc1cc2c(c(N3CCC(F)(F)CC3)n1)OCCC2)c1ccc(NS(=O)(=O)CCO)cc1N1CCC2(CC1)CC2 [Compound 540]
≥ 7.00 | O=C(Nc1cc2ccoc2c(N2CCC3(CC3)C2)n1)c1ccc(S(=O)(=O)NCCO)cc1N1CCC2(CC1)CC2 [Compound 214]
≥ 7.00 | Cn1ccc2cc(NC(=O)c3ccc(S(=O)(=O)NCCO)cc3N3CCC4(CC3)CC4)nc(CC(C)(C)CO)c21 [Compound 475]
≥ 7.00 | C[C@@H]1CN(c2cc(NC(=O)c3ccc(NS(=O)(=O)CCO)cc3N3CCC4(CC3)CC4)cc3ccn(C)c23)CCO1 [Compound 386]
≥ 7.00 | C[C@H](CO)S(=O)(=O)Nc1ccc(NC(=O)c2cc3ccn(C)c3c(N3CCC(F)(F)CC3)n2)c(N2CCC3(CC2)CC3)c1 [Compound 494]
≥ 7.00 | CN1CCc2cc(C(=O)Nc3ccc(NS(=O)(=O)CCO)cc3N3CCC4(CC3)CC4)nc(OC3CCC3)c21 [Compound 359]
≥ 7.00 | C[C@@H](CO)S(=O)(=O)Nc1ccc(C(=O)Nc2cc3c(c(N4CCC(F)(F)CC4)c2)N(C)CC3)c(N2CCC3(CC2)CC3)c1 [Compound 269]
≥ 7.00 | O=C(Nc1cc2c(c(N3CC4CC4C3)c1)OCC2)c1ccc(NS(=O)(=O)CCO)cc1N1CCC2(CC1)CC2 (stereo not drawn) [Compound 10]
≥ 7.00 | C[C@@H]1CN(c2cc(C(=O)Nc3ccc(NS(=O)(=O)[C@@H](C)CO)cc3N3CCC4(CC3)CC4)cc3ccoc23)CCO1 [Compound 175]
≥ 7.00 | C[C@H](CO)NS(=O)(=O)c1ccc(NC(=O)c2cc3c(c(N4CCC(F)(F)CC4)c2)OCC3)c(N2CCC3(CC2)CC3)c1 [Compound 62]
≥ 7.00 | O=C(Nc1cc2c(c(N3CCC(F)(F)CC3)c1)OCC2)c1ccc(S(=O)(=O)NCCO)cc1N1CCC2(CC1)CC2 [Compound 17]
≥ 7.00 | O=C(Nc1cc2c(c(N3CCC(F)(F)CC3)n1)OCO2)c1ccc(NS(=O)(=O)CCO)cc1N1CCC2(CC1)CC2 [Compound 538]
